Experimental data taken from article PMC8347092, “Betulin, a Newly Characterized Compound in Acacia auriculiformis Bark, Is a Multi-Target Protein Kinase Inhibitor” (Molecules, 2021).
Several values for one entry are separate records, joined by “and”; a condition that tells them apart may be missing. Equal entries are not always repeated. Structures can show the parent of a compound that is named as a salt.

Key:
[1] = tested on: K562S (doxorubicin-sensitive K562) chronic myelogenous leukemia cells; assay: MTS cell viability assay, K562S cells; format: cell-based, human; conditions: for IC50: Homo sapiens, K562, 48 h exposure, n = 3
Description: K562 (ATCC®, CCL-243, described here as K562S to indicate sensitivity to doxorubicin), a human chronic myelogenous leukemia cell line, was obtained from American Type Culture Collection (Manassas, VA, USA). A doxorubicin-resistant cell line (K562R, also known as K562/Adr) was kindly provided by the IRSET institute (Research Institute for Environmental and Occupational Health, INSERM, University of Rennes 1, France). The cells were maintained at 37 °C and 5% CO2 in Gibco™ 1640 Roswell Park Memorial Institute (RPMI-1640) medium containing 10% fetal bovine serum (FBS) (Life Technologies^TM, Thermo Fisher Scientific, Waltham, MA, USA).
(§1) Cell viability was evaluated with the MTS (3-(4,5-dimethylthiazol-2-yl)-5-(3-carboxymethoxyphenyl)-2-(4-sulfophenyl)-2H-tetrazolium) reduction kit, (CellTiter 96 Aqueous Non-Radioactive Cell Proliferation Assay, Promega, Fitchburg, WI, USA), according to the instructions of the manufacturer. […] Further details on experimental conditions used can be found in Delehouzé et al. 2017 [47].

[2] = tested on: phospho-ERK1/2 (Thr202/Tyr204); assay: Immunoblot of phospho-ERK1/2 in K562S cells; format: cell-based, human; conditions: 6 h treatment, ImageJ band quantification
Description: The concentration of DMSO in the culture medium was 1%. Cell lysates were prepared by sonication of the cells in homogenization buffer with 0.5% of nonidet P-40 non-ionic detergent (NP-40) as described previously. SDS-PAGE and immunoblotting were performed following standard procedures. Anti-α-tubulin antibody (clone B512, T5168, 1:5000) was purchased from Sigma Aldrich (St. Louis, MO, USA). The anti-phospho-p44/42 MAPK (#28733–1-AP, 1:2000) was purchased from Proteintech® (Rosemont, IL, USA). This rabbit polyclonal antibody detects p44 and p42 MAPK when doubly phosphorylated (at Thr202 and Tyr204 of p44 and at Thr185 and Tyr187 of p42 MAPK).

Pim1 = Pim1 (Homo sapiens, UniProt P11309); assay: ADP-Glo protein kinase assay, Pim1; format: biochemical; conditions: for % of kinase activity that remained, Pim1: 10 µM ATP, normalized to DMSO control, mean n = 2
Description: (§2) Kinase enzymatic activities were assayed in 384-well plates using the ADP-Glo^TM assay kit, following the recommendations of the manufacturer (Promega, Madison, WI). Controls were performed in appropriate dilutions of dimethyl sulfoxide (DMSO). Kinase activities, measured in the presence of 10 µM ATP, are expressed as percentage of maximal activity, i.e., measured in the absence of inhibitor. In order to determine the half-maximal inhibitory concentration (IC50), the assays were performed in duplicate in the absence or presence of increasing doses of the tested compounds. Data were analyzed using GraphPad PRISM (GraphPad Software, San Diego, CA, USA) software to fit a sigmoïdal curve that allowed determination of the IC50 values. The experimental conditions used for measuring kinase activities are comprehensively described in Ibrahim et al.. Human recombinant ABL1 mutant (T315I) was purchased from Promega (Catalog # V5320) and tested following the recommendations of the manufacturer (Promega, Madison, WI, USA).

GSK-3β = GSK-3β (Homo sapiens, UniProt P49841); assay: ADP-Glo protein kinase assay, GSK-3β; format: biochemical; conditions: for % of kinase activity that remained, GSK-3β: 10 µM ATP, normalized to DMSO control, mean n = 2
Description: as §2

[3] = cited from earlier work
JAK3 = biological target: T1, JAK3 (Homo sapiens, UniProt P52333); assay: ADP-Glo protein kinase assay, JAK3; format: biochemical; conditions: for % of kinase activity that remained, JAK3: 10 µM ATP, normalized to DMSO control, mean n = 2
T1 sequence (P52333 1-1124): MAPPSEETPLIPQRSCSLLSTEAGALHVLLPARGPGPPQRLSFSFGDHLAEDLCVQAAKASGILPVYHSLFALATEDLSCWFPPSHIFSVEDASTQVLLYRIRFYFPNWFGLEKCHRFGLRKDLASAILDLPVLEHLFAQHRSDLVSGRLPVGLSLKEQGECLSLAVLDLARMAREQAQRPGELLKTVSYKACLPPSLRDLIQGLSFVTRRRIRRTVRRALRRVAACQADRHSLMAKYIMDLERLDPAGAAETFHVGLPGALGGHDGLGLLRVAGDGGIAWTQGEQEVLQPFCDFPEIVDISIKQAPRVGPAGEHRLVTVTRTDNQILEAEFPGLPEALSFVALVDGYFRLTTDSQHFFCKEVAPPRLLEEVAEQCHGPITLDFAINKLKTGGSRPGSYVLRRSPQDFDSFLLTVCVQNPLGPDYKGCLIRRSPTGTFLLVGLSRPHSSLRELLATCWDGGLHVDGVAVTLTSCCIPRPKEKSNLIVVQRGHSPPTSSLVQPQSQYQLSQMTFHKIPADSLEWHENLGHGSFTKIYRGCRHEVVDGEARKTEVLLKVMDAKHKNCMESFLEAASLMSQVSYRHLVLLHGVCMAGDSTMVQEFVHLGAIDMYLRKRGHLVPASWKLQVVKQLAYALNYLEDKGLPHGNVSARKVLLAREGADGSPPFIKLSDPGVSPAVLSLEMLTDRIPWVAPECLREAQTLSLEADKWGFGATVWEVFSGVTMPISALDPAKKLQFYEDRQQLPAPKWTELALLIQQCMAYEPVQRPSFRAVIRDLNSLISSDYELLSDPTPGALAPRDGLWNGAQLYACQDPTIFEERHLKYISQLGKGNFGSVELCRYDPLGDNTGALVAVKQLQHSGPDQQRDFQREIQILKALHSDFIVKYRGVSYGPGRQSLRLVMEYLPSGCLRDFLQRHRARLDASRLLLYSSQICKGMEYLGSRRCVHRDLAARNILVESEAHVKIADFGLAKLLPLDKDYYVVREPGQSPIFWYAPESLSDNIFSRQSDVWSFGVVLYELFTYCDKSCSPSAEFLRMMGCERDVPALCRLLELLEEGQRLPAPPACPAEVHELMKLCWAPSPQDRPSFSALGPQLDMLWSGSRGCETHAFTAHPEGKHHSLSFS
Description: as §2

ABL1 = ABL1 (Homo sapiens, UniProt P00519); assay: ADP-Glo protein kinase assay, ABL1; format: biochemical; conditions: for % of kinase activity that remained, ABL1: 10 µM ATP, normalized to DMSO control, mean n = 2
Description: as §2, with “Kinase activities, measured in the presence of 10 µM ATP, are expressed as percentage of maximal activity, i.e., measured in the absence of inhibitor.” left out

VEGFR2 = VEGFR2 (Homo sapiens, UniProt P35968); assay: ADP-Glo protein kinase assay, VEGFR2; format: biochemical
Description: as §2

GSK-3α = GSK-3α (Homo sapiens, UniProt P49840); assay: ADP-Glo protein kinase assay, GSK-3α; format: biochemical
Description: as §2

[4] = tested on: human peripheral blood lymphocytes (hPBLs); assay: MTS cell viability assay, human peripheral blood lymphocytes; format: cell-based; conditions: betulin ≤ 100 µM, 48 h, four healthy donors
Description: Peripheral blood mononuclear cells (PBMCs) were isolated by Ficoll gradient centrifugation from blood buffy coats of healthy donors, provided by the Etablissement Français du Sang (EFS). The research protocol was conducted under French legal guidelines. After separation of monocytes by 1 h adhesion step, non-adherent PBMCs (peripheral blood lymphocytes, PBL) were harvested. PBL were cultured in RPMI 1640 medium (Gibco, Life technologies, Carlsbad, CA, USA) supplemented with 10% decomplemented fetal bovine serum (CVFSVF00–01, Eurobio), penicillin (100 IU/mL), and streptomycin (100 μg/mL) (15140–122, Gibco). All cells were cultured at 37 °C with 5% CO2.
as §1

CDK9/CyclinT = CDK9/CyclinT (Homo sapiens, UniProt P50750); assay: ADP-Glo protein kinase assay, CDK9/CyclinT; format: biochemical; conditions: 10 µM ATP, normalized to DMSO control, mean n = 2
Description: as §2

CK1ε = CK1ε (Homo sapiens, UniProt P49674); assay: ADP-Glo protein kinase assay, CK1ε; format: biochemical; conditions: for % of kinase activity that remained, CK1ε: 10 µM ATP, normalized to DMSO control, mean n = 2
Description: as §2

CDK5/p25 = CDK5/p25 (Homo sapiens, UniProt Q00535); assay: ADP-Glo protein kinase assay, CDK5/p25; format: biochemical; conditions: 10 µM ATP, normalized to DMSO control, mean n = 2
Description: as §2

[5] = tested on: K562R (doxorubicin-resistant K562) chronic myelogenous leukemia cells; assay: MTS cell viability assay, K562R cells; format: cell-based; conditions: Homo sapiens, K-562R, 48 h exposure, n = 3
[6] = ref ChemSpider database, Royal Society of Chemistry; cited from earlier work
Haspin = biological target: T2, Haspin (Homo sapiens, UniProt Q8TF76); assay: ADP-Glo protein kinase assay, Haspin; format: biochemical; conditions: 10 µM ATP, normalized to DMSO control, mean n = 2
T2 sequence (Q8TF76 1-798): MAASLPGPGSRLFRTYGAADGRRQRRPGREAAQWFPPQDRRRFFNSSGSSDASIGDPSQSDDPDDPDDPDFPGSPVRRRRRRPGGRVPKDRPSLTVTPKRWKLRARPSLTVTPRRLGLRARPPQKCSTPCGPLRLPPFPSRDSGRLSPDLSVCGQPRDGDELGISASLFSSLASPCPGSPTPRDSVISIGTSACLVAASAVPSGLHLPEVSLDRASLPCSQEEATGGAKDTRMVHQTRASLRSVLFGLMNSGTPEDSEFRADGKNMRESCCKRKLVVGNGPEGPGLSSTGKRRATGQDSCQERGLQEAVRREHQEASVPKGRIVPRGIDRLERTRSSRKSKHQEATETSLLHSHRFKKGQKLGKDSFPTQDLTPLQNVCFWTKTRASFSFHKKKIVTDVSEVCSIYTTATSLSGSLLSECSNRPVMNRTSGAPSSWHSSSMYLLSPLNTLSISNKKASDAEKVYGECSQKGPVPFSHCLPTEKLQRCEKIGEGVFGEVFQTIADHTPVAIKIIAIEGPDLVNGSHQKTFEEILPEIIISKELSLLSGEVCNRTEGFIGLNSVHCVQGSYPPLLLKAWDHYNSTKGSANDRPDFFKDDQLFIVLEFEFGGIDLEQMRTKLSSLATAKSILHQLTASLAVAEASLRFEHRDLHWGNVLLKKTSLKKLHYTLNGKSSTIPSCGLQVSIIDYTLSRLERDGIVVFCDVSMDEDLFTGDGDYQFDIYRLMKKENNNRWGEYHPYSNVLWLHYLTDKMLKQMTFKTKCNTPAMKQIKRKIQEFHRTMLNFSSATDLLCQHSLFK
Description: as §2

NEK6 = NEK6 (Homo sapiens, UniProt Q9HC98); assay: ADP-Glo protein kinase assay, NEK6; format: biochemical
Description: as §2

ABL1 mutant (T315I) = ABL1 mutant (T315I) (Homo sapiens, UniProt P00519, T315I); conditions: inhibitor at 1 µM; 10 µM ATP; compared with wild type ABL1
Description: Effect of the T315I ABL1 kinase domain mutation on the inhibition by betulin. We selected 1 µM
We measured inhibition of mutant and WT ABL1 kinase activities by betulin and by
imatinib, using the ADP-Glo luminescent assay. ATP concentration used in the kinase assays was 10 µM.
Data are mean (N=3, n=3) ± SEM expressed as % of residual kinase activity, normalized to the DMSO control.

[7] = betulin purified from Acacia auriculiformis at 10 µg/mL
[8] = betulin purified from Acacia auriculiformis at 1 µg/mL

Sequence of Pim1 (P11309 whole entry): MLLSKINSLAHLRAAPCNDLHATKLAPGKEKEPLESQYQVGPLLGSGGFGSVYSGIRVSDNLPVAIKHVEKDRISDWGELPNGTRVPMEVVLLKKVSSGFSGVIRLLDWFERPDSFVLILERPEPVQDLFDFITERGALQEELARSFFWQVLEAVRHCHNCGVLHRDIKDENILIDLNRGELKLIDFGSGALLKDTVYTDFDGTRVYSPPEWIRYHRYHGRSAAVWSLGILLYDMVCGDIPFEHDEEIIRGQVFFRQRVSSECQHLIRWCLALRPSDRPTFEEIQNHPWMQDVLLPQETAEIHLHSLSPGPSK
Sequence of CK1ε (P49674 whole entry): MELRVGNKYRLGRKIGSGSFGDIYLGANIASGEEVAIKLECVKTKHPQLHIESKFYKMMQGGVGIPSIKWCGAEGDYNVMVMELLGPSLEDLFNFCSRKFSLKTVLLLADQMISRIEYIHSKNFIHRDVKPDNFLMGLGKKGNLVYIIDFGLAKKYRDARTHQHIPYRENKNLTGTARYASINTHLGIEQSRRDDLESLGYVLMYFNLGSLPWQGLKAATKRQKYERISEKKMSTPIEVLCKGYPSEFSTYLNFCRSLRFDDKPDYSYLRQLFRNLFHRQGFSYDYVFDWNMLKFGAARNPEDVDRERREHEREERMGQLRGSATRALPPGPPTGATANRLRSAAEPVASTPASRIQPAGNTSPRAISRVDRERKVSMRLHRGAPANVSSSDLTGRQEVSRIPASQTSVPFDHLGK
Sequence of GSK-3β (P49841 whole entry): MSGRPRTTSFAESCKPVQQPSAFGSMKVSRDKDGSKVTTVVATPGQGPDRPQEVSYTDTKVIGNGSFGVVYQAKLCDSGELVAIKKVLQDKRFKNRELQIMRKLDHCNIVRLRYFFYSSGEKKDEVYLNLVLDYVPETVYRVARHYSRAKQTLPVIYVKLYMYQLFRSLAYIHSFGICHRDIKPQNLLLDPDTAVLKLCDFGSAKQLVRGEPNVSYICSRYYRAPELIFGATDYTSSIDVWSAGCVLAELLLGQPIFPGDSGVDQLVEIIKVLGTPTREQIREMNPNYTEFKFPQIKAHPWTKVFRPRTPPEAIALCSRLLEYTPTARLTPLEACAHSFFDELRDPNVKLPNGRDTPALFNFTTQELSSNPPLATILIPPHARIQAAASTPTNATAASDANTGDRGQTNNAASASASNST
Sequence of CDK9/CyclinT (P50750 whole entry): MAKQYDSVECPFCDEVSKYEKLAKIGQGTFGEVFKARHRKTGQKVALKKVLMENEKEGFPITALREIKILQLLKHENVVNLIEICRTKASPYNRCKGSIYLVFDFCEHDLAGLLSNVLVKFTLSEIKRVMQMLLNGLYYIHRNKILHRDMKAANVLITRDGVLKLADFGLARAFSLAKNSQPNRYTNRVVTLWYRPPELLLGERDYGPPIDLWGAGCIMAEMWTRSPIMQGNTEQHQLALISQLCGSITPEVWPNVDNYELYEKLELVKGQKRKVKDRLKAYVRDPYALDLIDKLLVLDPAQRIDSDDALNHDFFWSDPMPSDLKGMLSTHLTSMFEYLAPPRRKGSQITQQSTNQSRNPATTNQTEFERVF
Sequence of CDK9/CyclinT (O60563 whole entry partner): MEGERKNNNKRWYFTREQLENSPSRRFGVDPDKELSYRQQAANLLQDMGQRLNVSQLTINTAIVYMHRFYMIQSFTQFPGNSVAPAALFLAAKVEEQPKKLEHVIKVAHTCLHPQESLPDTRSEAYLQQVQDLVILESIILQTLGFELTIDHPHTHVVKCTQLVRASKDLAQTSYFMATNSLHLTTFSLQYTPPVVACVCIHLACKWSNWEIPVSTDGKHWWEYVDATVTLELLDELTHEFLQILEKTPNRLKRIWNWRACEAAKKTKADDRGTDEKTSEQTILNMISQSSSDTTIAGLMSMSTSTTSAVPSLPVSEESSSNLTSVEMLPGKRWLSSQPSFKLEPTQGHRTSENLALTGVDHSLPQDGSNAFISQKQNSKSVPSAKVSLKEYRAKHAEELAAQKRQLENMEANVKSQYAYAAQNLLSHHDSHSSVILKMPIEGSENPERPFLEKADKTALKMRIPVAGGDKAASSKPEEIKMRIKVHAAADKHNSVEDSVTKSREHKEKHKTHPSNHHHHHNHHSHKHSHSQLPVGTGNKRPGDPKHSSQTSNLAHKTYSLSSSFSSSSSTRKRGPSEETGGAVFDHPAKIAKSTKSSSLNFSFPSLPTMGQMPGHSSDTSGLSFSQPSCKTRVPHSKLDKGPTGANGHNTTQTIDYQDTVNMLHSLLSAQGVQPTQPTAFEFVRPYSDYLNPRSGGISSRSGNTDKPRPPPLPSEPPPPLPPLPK
Sequence of CDK5/p25 (Q00535 whole entry): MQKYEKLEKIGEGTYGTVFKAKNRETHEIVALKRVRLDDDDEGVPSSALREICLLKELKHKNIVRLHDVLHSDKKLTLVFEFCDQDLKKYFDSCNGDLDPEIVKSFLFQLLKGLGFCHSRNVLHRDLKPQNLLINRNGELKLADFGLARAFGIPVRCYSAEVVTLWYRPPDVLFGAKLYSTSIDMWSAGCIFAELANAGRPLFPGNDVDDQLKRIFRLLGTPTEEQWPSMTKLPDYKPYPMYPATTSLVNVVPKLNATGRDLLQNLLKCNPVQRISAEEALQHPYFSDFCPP
Sequence of CDK5/p25 (Q15078 99-307 partner limits assumed): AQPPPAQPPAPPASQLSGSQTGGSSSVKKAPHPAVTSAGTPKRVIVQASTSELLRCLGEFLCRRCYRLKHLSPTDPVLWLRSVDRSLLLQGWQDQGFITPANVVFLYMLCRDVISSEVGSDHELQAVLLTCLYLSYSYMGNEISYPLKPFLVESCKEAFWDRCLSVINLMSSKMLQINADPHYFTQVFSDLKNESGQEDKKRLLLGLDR
Sequence of NEK6 (Q9HC98 whole entry): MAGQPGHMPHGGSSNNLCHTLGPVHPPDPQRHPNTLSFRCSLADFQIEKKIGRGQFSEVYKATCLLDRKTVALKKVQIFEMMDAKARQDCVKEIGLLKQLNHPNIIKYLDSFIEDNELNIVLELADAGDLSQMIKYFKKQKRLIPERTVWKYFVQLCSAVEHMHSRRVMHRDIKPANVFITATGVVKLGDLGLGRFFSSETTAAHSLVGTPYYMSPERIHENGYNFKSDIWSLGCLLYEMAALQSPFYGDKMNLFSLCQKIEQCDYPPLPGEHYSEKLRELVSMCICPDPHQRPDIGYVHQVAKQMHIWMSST
Sequence of VEGFR2 (P35968 20-1356): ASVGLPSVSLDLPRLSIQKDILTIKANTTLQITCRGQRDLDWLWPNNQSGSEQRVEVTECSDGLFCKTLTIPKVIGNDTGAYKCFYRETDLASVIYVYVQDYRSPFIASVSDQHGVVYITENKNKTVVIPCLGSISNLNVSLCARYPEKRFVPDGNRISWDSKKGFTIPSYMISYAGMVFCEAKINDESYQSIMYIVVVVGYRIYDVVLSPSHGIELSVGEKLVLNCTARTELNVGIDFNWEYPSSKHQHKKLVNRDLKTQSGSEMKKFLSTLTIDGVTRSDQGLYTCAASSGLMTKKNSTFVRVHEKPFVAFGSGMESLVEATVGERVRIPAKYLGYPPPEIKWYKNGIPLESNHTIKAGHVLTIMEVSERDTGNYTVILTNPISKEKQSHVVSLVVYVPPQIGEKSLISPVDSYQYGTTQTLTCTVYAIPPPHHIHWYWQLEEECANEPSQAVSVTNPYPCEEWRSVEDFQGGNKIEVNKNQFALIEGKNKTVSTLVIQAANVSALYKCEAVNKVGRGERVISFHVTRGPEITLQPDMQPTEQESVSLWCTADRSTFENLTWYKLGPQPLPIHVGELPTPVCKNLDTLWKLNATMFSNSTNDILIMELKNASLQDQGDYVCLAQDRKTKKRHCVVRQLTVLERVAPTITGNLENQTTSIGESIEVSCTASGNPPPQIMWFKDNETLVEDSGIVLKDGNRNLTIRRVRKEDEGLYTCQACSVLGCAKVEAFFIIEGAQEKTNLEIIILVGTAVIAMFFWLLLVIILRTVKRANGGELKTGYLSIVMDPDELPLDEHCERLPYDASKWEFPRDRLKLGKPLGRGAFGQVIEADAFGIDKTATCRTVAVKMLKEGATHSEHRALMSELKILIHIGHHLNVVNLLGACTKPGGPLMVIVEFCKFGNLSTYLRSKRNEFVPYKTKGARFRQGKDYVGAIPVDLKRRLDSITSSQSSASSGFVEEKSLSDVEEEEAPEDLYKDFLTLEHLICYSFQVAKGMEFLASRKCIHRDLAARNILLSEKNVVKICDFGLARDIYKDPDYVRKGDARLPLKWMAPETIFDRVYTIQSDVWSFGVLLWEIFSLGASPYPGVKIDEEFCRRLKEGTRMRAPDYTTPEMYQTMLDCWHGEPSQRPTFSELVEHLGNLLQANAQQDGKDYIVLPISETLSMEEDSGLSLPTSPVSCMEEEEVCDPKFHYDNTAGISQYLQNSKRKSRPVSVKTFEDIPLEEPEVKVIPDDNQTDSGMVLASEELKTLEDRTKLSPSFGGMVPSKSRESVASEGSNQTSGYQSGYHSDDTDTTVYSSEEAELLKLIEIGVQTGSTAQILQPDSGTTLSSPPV
Sequence of GSK-3α (P49840 whole entry): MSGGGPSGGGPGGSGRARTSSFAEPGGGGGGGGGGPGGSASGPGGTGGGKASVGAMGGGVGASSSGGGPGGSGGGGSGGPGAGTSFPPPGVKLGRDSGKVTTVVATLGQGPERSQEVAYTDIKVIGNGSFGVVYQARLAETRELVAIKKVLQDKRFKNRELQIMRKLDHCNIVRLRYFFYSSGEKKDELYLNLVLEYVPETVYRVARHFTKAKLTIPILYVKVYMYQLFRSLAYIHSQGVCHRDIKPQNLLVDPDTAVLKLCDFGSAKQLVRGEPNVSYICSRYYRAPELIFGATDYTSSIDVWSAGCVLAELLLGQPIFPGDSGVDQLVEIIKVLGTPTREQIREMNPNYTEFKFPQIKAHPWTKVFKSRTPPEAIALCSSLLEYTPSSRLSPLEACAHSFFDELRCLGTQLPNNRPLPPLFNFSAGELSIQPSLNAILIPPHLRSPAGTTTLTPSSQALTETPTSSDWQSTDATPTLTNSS

Q: Which IC50 [1] does the source give for `COc1cccc2c1C(=O)c1c(O)c3c(c(O)c1C2=O)C[C@@](O)(C(=O)CO)C[C@@H]3O[C@H]1C[C@H](N)[C@H](O)[C@H](C)O1` [Doxorubicin, reference compound] here?
A: Its IC50 is 590 nM.

Q: For `Cc1ccc(NC(=O)c2ccc(CN3CCN(C)CC3)cc2)cc1Nc1nccc(-c2cccnc2)n1` [imatinib mesylate, reference compound], which “%pERK/Tubulin” value ([2]; 20 µM) is on record?
A: The value was 1.5%.

Q: What does the source list for `C=C(C)[C@@H]1CC[C@]2(CO)CC[C@]3(C)[C@H](CC[C@@H]4[C@@]5(C)CC[C@H](O)C(C)(C)[C@@H]5CC[C@]43C)[C@@H]12` [Betulin, 3-lup-20(29)-ene-3β,28-diol]?
A: % of kinase activity that remained, Pim1 (Pim1; betulin purified from Acacia auriculiformis at 1 µg/mL, ≥100 = no detectable inhibition): ≥100%; % of kinase activity that remained, Pim1 (Pim1; [7]): 90%; inhibition at 10 µg/mL (Pim1; read-out: inhibition of kinase activity, Pim1): 10%; IC50 (GSK-3β): 1060 nM; % of kinase activity that remained, GSK-3β (GSK-3β; [8]): 38%; % of kinase activity that remained, GSK-3β (GSK-3β; [7]): 30%; %pERK/Tubulin ([2]; 50 µM): 71.3%; %pERK/Tubulin ([2]; 100 µM): 48.3%; solubility in water [3]: 0.08 μg/mL and 0.18 µM; IC50 (JAK3): 1080 nM; % of kinase activity that remained, JAK3 (JAK3; [8]): 28%; % of kinase activity that remained, JAK3 (JAK3; [7]): 25%; IC50 (ABL1): 930 nM; inhibition of the ABL1 activity in ATP competition assay (ABL1; 10 µM betulin, 100 µM ATP compared with 10 µM ATP): significantly decreased; % of kinase activity that remained, ABL1 (ABL1; [8]): 36%; % of kinase activity that remained, ABL1 (ABL1; [7]): 21%; inhibition at 10 µg/mL (ABL1; read-out: inhibition of kinase activity, ABL1): 79%; IC50 (VEGFR2): 2450 nM; IC50 (GSK-3α): 720 nM; viability of hPBLs [4]: did not induce a significant decrease; % of kinase activity that remained, CDK9/CyclinT (CDK9/CyclinT; [8]): 88%; % of kinase activity that remained, CDK9/CyclinT (CDK9/CyclinT; [7]): 60%; IC50 (CK1ε): 2110 nM; % of kinase activity that remained, CK1ε (CK1ε; [8]): 53%; % of kinase activity that remained, CK1ε (CK1ε; [7]): 48%; % of kinase activity that remained, CDK5/p25 (CDK5/p25; [8]): 94%; % of kinase activity that remained, CDK5/p25 (CDK5/p25; [7]): 99%; IC50 [5]: 13500 nM; predicted Octanol-Water Partition Coefficient (LogP) [6]: 9.01; % of kinase activity that remained, Haspin (Haspin; [8]): 72%; % of kinase activity that remained, Haspin (Haspin; [7]): 91%; IC50 [1]: 16500 nM; effects on K562S cell viability when cells co-treated with z-VAD-fmk ([1]; betulin 1-50 µM with 20 µM z-VAD-fmk (pan-inhibitor of caspases), 48 h): not significantly altered; IC50 (NEK6): 3020 nM; inhibition of the enzymatic activity of T315I mutant of ABL1 (ABL1 mutant (T315I)): retains its capacity to inhibit
